For test [1], the system named is Pectobacterium carotovorum sub. carotovorum. How it is done: (§1) In-vitro inhibition assays were performed in sterile flat-bottom 96-well plates (Greiner bio-one, Frickenhausen). Antimicrobial peptides were dissolved in 0.01% acetic acid containing 0.2% BSA (500 µg/ml), filter sterilized and stored at -20°C. For inhibition assays dilutions of peptides ranging from 5 to 200 µg/ml were prepared and 10 µl (antibacterial assay) or 20 µl (antifungal assay) of each concentration was loaded per well.
(§2) Bacteria colonies from overnight agar plate cultures were resuspended into 5ml LB-medium or HPG-medium (OD600nm=0.08-0.1) and diluted into LB-medium/HPG-medium (1:100). 90 µl of this suspension containing about 10^5-10^6 CFU/ml of tested bacteria were added to each well resulting in final peptide concentrations of 0, 0.5, 1, 2, 5, 10, and 20 µg/ml.
(§3) The lowest peptide concentration leading to complete inhibition of bacterial growth or spore germination/mycelial growth (minimal inhibition concentration, MIC) was determined for each organism-peptide combination. For each peptide concentration two identical inhibition assays were performed. […] Table 1: Minimal inhibition concentration (MIC) for complete inhibition of bacterial growth or spore germination/mycelial growth.

In test [2] the test system is Pseudomonas syringae pv. tomato. The procedure: as §1, §2, §3
The subject of another test is Xanthomonas vesicatoria. The procedure: as §1, §2, §3
The test system of test [3] is Clavibacter michiganensis sub. michiganensis. The conditions noted are these: complete inhibition of bacterial growth, overnight at 25 °C. The procedure: as §1, §2, §3
The test system of the next test is Pseudomonas corrugata. The procedure:
as §1, §2, §3

The subject of test [4] is Pseudomonas syringae pv. syringae. How it is done: as §1, §2, §3
In the next test the test system is Alternaria alternata. The format is cell-based. The settings on record: complete inhibition of spore germination/mycelial growth, OD590nm. How it is done: (§4) In-vitro inhibition assays were performed in sterile flat-bottom 96-well plates (Greiner bio-one, Frickenhausen). […] Spores of fungi were collected by water washes of sporulating cultures grown on 2% malt extract agar and spore concentration was determined by microscopy. The concentration of the spores was adjusted to 1.5-2 x 10^3 spores/ml in 2% malt extract medium and 80 µl of fungal spores were added per well. […] After overnight incubation at room temperature the plate were put on a rotary shaker (300 rpm) for further two days to ensure consistantly growth. Antifungal effects of the peptides were determined by a microplate reader (Alternaria, Fusarium) at OD590nm or by visual screening of the plates (Botrytis, Cladosporium). The lowest peptide concentration leading to complete inhibition of bacterial growth or spore germination/mycelial growth (minimal inhibition concentration, MIC) was determined for each organism-peptide combination. For each peptide concentration two identical inhibition assays were performed. Table 1: Minimal inhibition concentration (MIC) for complete inhibition of bacterial growth or spore germination/mycelial growth.

The test system of the next test is Botrytis cinerea. It is filed as cell-based. The conditions noted are these: complete inhibition of spore germination/mycelial growth, visual screening. The procedure:
as §4

In the next test the test system is Cladosporium herbarum. It is filed as cell-based. The conditions noted are these: complete inhibition of spore germination/mycelial growth, visual screening. How it is done: as §4
The mark [5] stands for this setting: complete inhibition of bacterial growth, Pectobacterium carotovorum sub. carotovorum, overnight at 25 °C.
[6] abbreviates: complete inhibition of bacterial growth, Pseudomonas syringae pv. tomato, overnight at 25 °C.
The mark [7] stands for this setting: complete inhibition of bacterial growth, Xanthomonas vesicatoria, overnight at 25 °C.
[8] abbreviates: complete inhibition of bacterial growth, Pseudomonas corrugata, overnight at 25 °C.
[9] abbreviates: complete inhibition of bacterial growth, Pseudomonas syringae pv. syringae, overnight at 25 °C.

Where two headings read alike, the source gives them in different places. Non-standard residues stand in square brackets, D forms with d. Residues, ends and D or L forms follow the SMILES beside them. No end group written: not given here. Some results are limits rather than exact numbers.

On to LLIKFLKRFIKH-NH2 [SP7], for which the “Minimal inhibition concentration (MIC)” value is over 40 µg/mL in test [1] (setting [5]); 5 µg/mL in test [2] (setting [6]); 5 µg/mL in the test on Xanthomonas vesicatoria (setting [7]); 5 µg/mL in [3]; 10 µg/mL with Pseudomonas corrugata (setting [8]); 10 µg/mL in [4] (setting [9]). In addition, the entries for the “Minimal inhibition concentration (MIC)” value with Alternaria alternata, with Botrytis cinerea and in the test on Cladosporium herbarum were over 100 µg/mL, over 100 µg/mL and 20 µg/mL, respectively.
Take `CC[C@@H](C)[C@@H](NC(=O)[C@H](Cc1ccccc1)NC(=O)[C@H](CCCNC(=N)N)NC(=O)[C@H](CCCCN)NC(=O)[C@H](CC(C)C)NC(=O)[C@H](Cc1ccccc1)NC(=O)[C@H](CCCCN)NC(=O)[C@H](NC(=O)[C@H](CC(C)C)NC(=O)[C@@H](N)CC(C)C)[C@H](C)CC)C(=O)N[C@@H](CCCCN)C(=O)N[C@@H](Cc1c[nH]cn1)C(N)=O` [SP7-D, LL/KFLKRF/KH] (H-LL[dI]KFLKRF[dI]KH-NH2; N-terminus assumed): the “Minimal inhibition concentration (MIC)” value in test [1] was 40 µg/mL; in test [2], 2,5 µg/ml; with Xanthomonas vesicatoria it was 10 µg/mL; in the test on Pseudomonas corrugata, 5 µg/mL; in [4], 2,5 µg/ml.
Consider LLIRAAKKFIKK-NH2 [SP8], for which the “Minimal inhibition concentration (MIC)” value (in test [1] (setting [5]); in [2] (setting [6]); in the test with Xanthomonas vesicatoria (setting [7]); in test [3]; in the test with Pseudomonas corrugata (setting [8]); in test [4] (setting [9])) was over 40 µg/mL throughout. In addition, the results for the “Minimal inhibition concentration (MIC)” value with Alternaria alternata, in the test on Botrytis cinerea and with Cladosporium herbarum were over 100 µg/mL, over 100 µg/mL and 40 µg/mL, respectively.
Regarding LLIAAFKKLVKK-NH2 [SP5], the “Minimal inhibition concentration (MIC)” value in test [1] (setting [5]) was over 40 µg/mL; in [2] (setting [6]), over 40 µg/mL; in the test on Xanthomonas vesicatoria (setting [7]), 40 µg/mL; in test [3], 20 µg/mL; in the test on Pseudomonas corrugata (setting [8]), over 40 µg/mL; in test [4] (setting [9]) it was 40 µg/mL. Further, the “Minimal inhibition concentration (MIC)” value with Alternaria alternata was over 100 µg/mL; in the test with Botrytis cinerea, over 100 µg/mL; in the test with Cladosporium herbarum, 100 µg/mL.
For ALAHFLKKAIKK-NH2 [SP6], the “Minimal inhibition concentration (MIC)” value in [1] (setting [5]) was over 40 µg/mL; in test [2] (setting [6]), 10 µg/mL; with Xanthomonas vesicatoria (setting [7]), 40 µg/mL; in [3], over 40 µg/mL; in the test on Pseudomonas corrugata (setting [8]), 20 µg/mL; in [4] (setting [9]), 5 µg/mL. Moreover, the “Minimal inhibition concentration (MIC)” value is over 100 µg/mL with Alternaria alternata, over 100 µg/mL in the test with Botrytis cinerea and 100 µg/mL with Cladosporium herbarum.

(Values after EP2168591A1, “Antimicrobial peptides” (Helmholtz Zentrum München Deutsches Forschungszentrum für …, priority 2008, dated 2010).)
